The values below come from patent publication US12617757B2, “Compounds and modules for inhibition of pre-miR-21 and their use in treatment of certain cancers” (University of Florida Research Foundation, Incorporated, priority 2019, dated 2026).

Molecules are shown by their SMILES.

In assay [1] the test system is pre-miR-21 WT. In words: Microscale thermophoresis (MST) binding to pre-miR-21 WT. The protocol: (§1) Microscale Thermophoresis (MST) Binding Measurements. MST fluorescent measurements were performed on a Monolith NT.115 system (NanoTemper Technologies) using the fluorescence of a miR-21 hairpin (A+U Bulge): (5′ Cy5-[…]-3′) (SEQ ID NO: 1) or a miR-21 base paired control (5′ Cy5-[…]-3′) (SEQ ID NO: 2) which were purchased from IDT with RNase-free HPLC purification and used without further purification. The RNA (5 nM) was diluted in 1×MST Buffer (8 mM Na2HPO4, 190 mM NaCl, 1 mM EDTA, and 0.05% (v/v) Tween-20) and folded by heating at 60° C. for 5 min, and slowly cooling to room temperature. Compounds 1 and 2 were diluted in 1×MST Buffer, followed by 1:3 dilutions in 1×MST Buffer containing 5 nM RNA. […] Fluorescence measurements (Ex: 605-645 nm, Em: 680-685 nm) were performed at 10% LED and 80% MST power, with a Laser-On time of 30 s and Laser-Off time of 5 s. The data were analyzed by thermophoresis analysis and fitted by the quadratic binding equation in MST analysis software (NanoTemper Technologies). Dissociation constants were then determined by curve fitting using a single-site model. Normalized MST signal was calculated by normalizing the fluorescent signals using the MST data of 1 binding to pre-miR-21 WT with the lowest signal as 0 and the highest fluorescent signal as 1.
(In general: In MST a laser heats a spot of the sample, and binding alters the fluorescence response.)

Assay [2] deals with pre-miR-21 BP. As to the kind of experiment: MST binding to pre-miR-21 BP (base paired control). The following applies: addition of 100 μM of compound. The protocol:
as §1

For assay [3], the system named is pre-miR-21 BP RNA. In words: In vitro Dicer processing of pre-miR-21 BP. The format is biochemical. The text has this: In vitro Dicer processing. […] Cleavage products were resolved on a denaturing 15% polyacrylamide gel, which was imaged using a Molecular Dynamics Typhoon phosphorimager and quantified with Bio-Rad's QuantityOne software, normalizing to full length RNA.

Assay [4] has as its system pre-miR-21. As to the kind of experiment: Cellular Chem-CLIP / C-Chem-CLIP in MDA-MB-231 cells. The format is cell-based, human. The protocol: Cellular Chem-CLIP/C-Chem-CLIP. The MDA-MB-231 cells were grown to ˜70% confluency as monolayers in 60 mm dishes. The cells were treated with Chem-CLIP compounds (8 or 9) and/or non-cross-linking competitors (1 or 2) for 48 h. Total RNA was extracted using a Quick-RNA MiniPrep Kit (Zymo Research) per the manufacturer's protocol. Approximately 20-30 μg of total RNA was then incubated with 100 μL of streptavidin-agarose beads (Sigma-Aldrich) and shaken for 1 h at room temperature. The solution was removed beads washed six times with 1×PBS. The RNA bound to beads was released, purified, and used for RT-qPCR as previously described^23. Relative fold enrichment of the measured RNA before and after pulldown was measured using equation 3 (Eq. 3): Relative Fold Enrichment=2^−(ΔC^t^before pulldown−ΔC^t^after pulldown) (Eq. 3)
where “ΔCt before pulldown” is the difference between the Ct values for the RNA of interest and a housekeeping gene in total RNA from cells and “ΔCt after pulldown” is the difference between the Ct values for the RNA of interest and the same housekeeping gene in RNA after pulldown.

Assay [5] relates to MDA-LM2 cells. As to the kind of experiment: Boyden chamber invasion assay, MDA-LM2. The following applies: LNA-21 100 nM, 2 1000 nM. The format is cell-based. The protocol: Boyden Chamber Invasion Assay. The MDA-MB-231, MDA-LM2, A375, A549, or MCF-10a cells (5×10^4) were seeded into Hanging Cell Culture Inserts for 24 well plates with uncoated membranes with 8.0 μm pores (Millicell) in serum free growth media. A 3 mg/mL layer (100 μL) of Matrigel (Fisher Scientific: CB40234) diluted with serum free growth media was prepared inside of each membrane. Cells were cultured as described above, with or without compound treatment, and allowed to invade towards complete growth media in the bottom well for 16-24 h before ending the experiment by removing the media in the bottom wells and inserts. The hanging cell culture inserts and bottom wells were washed twice with 1×PBS, gently shaking to mix. Excess liquid and cells inside the insert were removed with cotton swabs, after which 400 μL of 4% paraformaldehyde was placed into the bottom well and incubated for 20 min at room temperature to fix the cells. […] Four different fields of view from each captured image were counted for crystal violet stained or unstained cells. Normalized cells invaded was calculated with equation 5 (Eq 5): […]
(§2) where stained cells represent cells counted with crystal violet stain observed in the compound treated or vehicle treated samples, respectively.

Assay [6] deals with MCF-10a cells. As to the kind of experiment: Boyden chamber invasion assay, MCF-10a. The format is cell-based. The following applies: for effect on invasion induced by overexpression of pre-miR-21: MCF-10a + pre-miR-21. The protocol:
Boyden Chamber Invasion Assay. The MDA-MB-231, MDA-LM2, A375, A549, or MCF-10a cells (5×10^4) were seeded into Hanging Cell Culture Inserts for 24 well plates with uncoated membranes with 8.0 μm pores (Millicell) in serum free growth media. A 3 mg/mL layer (100 μL) of Matrigel (Fisher Scientific: CB40234) diluted with serum free growth media was prepared inside of each membrane. Cells were cultured as described above, with or without compound treatment, and allowed to invade towards complete growth media in the bottom well for 16-24 h before ending the experiment by removing the media in the bottom wells and inserts. The hanging cell culture inserts and bottom wells were washed twice with 1×PBS, gently shaking to mix. Excess liquid and cells inside the insert were removed with cotton swabs, after which 400 μL of 4% paraformaldehyde was placed into the bottom well and incubated for 20 min at room temperature to fix the cells. The wells and inserts were washed twice with 1×PBS and then treated with 400 μL of 0.1% crystal violet solution for 20 min at room temperature to stain the cells. The wells and inserts were washed twice with water, followed by one wash with 1×PBS. Inserts were dried with cotton swabs to remove extra stain and cells inside the insert, then were air-dried, followed by Brightfield microscopic analysis using a Leica DMI3000 B […] fluorescent microscope. Four different fields of view from each captured image were counted for crystal violet stained or unstained cells. Normalized cells invaded was calculated with equation 5 (Eq 5): […]
as §2

The subject of assay [7] is pre-miR-21. In words: Measurement of catalytic activity in MDA-MB-231 cells. The format is cell-based, human. The protocol:
Measurement of Catalytic Activity. The MDA-MB-231 cells were plated into a 24-well plates (Corning). At ˜80% confluency, the media was aspirated and the cell monolayer was washed with 1×DPBS. Cells were then incubated with 5 (500 nM) or vehicle (DMSO) diluted in cell culture medium for 24 h. Cells were then lysed using 250 μL of RNA Lysis Buffer from a Quick-RNA MiniPrep Kit (Zymo Research). A 100 μL aliquot was transferred to black, non-binding surface, half area 96-well plates (Corning). Fractions of untreated cell lysate were combined and used to generate a standard curve of 5 in cell lysate, by spiking in known concentrations of 5. Fluorescence intensity (Ex: 345 nm, Em: 460 nm) was then measured on a Molecular Devices SpectraMax M5 plate reader to determine compound concentration in cell lysate. Using the generated standard curve, the concentration of 5 in the […] cell lysate aliquot was then used to extrapolate the amount of 5 in pmol in the full 250 μL volume.
RNA was extracted from the cell lysates, followed by RT-qPCR as described above. A standard curve was generated for the pre-miR-21 WT transcript using in vitro transcribed pre-miR-21 (10 ng, 1 ng, 0.1 ng, 0.01 ng, 0.001 ng, 0.0001 ng, 0 ng) completed with each run to accurately calibrate Ct values. The amount of cleaved pre-miR-21 was then calculated by taking the difference between the pmol of pre-miR-21 in untreated samples and the pmol of pre-miR-21 in 5-treated samples. Catalytic activity, or turnover, was calculated by taking the ratio of the pmol of cleaved pre-miR-21 and the pmol of 5 in the sample.

`CCCN(CC(=O)N(CCC)CC(=O)N(CCC)CC(=O)N(CC(N)=O)Cc1cn(CCCNC(=O)CCCOc2ccc(-c3nc4cc(-c5ccc(N6CCN(C)CC6)cc5)ccc4[nH]3)cc2)nn1)C(=O)CNCc1cn(CCCNC(=O)CCCOc2ccc(-c3nc4cc(-c5ccc(N6CCN(C)CC6)cc5)ccc4[nH]3)cc2)nn1` [Compound 2]: in assay [1], the “enhancement of pre-miR-21 binding over the compound of Formula 1” value was determined as 20 fold. Moreover, in assay [2], the “saturation of the binding isotherm” value is “No saturation of the binding isotherm was observed”. In assay [3], the “protection from Dicer processing” value was “Protection with compound is observed at U26 and U27”. In addition, the “potency in occupying pre-miR-21 in cells versus Formula 1 (C-Chem-CLIP)” value in assay [4] (MDA-MB-231) amounted to 20 fold. The “competition of Chem-CLIP enrichment (C-Chem-CLIP)” value in assay [4] (MDA-MB-231, versus probe 8) is “enrichment is depleted”. In addition, the effect on invasion entry in assay [5] is recorded as “decreased the invasive phenotype”.
Regarding `CCCN(CC(=O)N(CCC)CC(=O)N(CCC)CC(=O)N(CC(=O)NCCOCCOCCOCCOc1ccc(C=C2SC(Nc3ccccc3)=C(C(=O)OCC)C2=O)cc1O)Cc1cn(CCCNC(=O)CCCOc2ccc(-c3nc4cc(-c5ccc(N6CCN(C)CC6)cc5)ccc4[nH]3)cc2)nn1)C(=O)CN(Cc1cn(CCCNC(=O)CCCOc2ccc(-c3nc4cc(-c5ccc(N6CCN(C)CC6)cc5)ccc4[nH]3)cc2)nn1)C(C)=O` [Compound 5], the figures for the “effect on invasion induced by overexpression of pre-miR-21” value in assay [6] and in assay [6] (listed as Formula 5) were “decreased invasion” and “inhibited invasion”, respectively. Moreover, the effect on invasion result in assay [6] (MCF-10a, no pre-miR-21 overexpression) was “no effect on invasion”. In addition, the “Average pre-miR-21” value in assay [7] (500 nM, 24 h, MDA-MB-231, mean ± s.d. (n = 6)) was 16 ± 3.8 pmol. The “Cleaved pre-miR-21” value in assay [7] (500 nM, 24 h, difference untreated minus treated, mean ± s.d.) is 68 ± 6.7 pmol. Besides, the Turnovers in assay [7] (500 nM, 24 h, ratio Cleaved pre-miR-21 / 5 Detected, mean ± s.d.) was 26 ± 2.5. For the same molecule, in assay [7] (MDA-MB-231), the “moles of pre-miR-21 cleaved by one mole of compound” value is 26 mol.
